# Measurements: PMC12421852, “AcrIF11 is a potent CRISPR-specific ADP-ribosyltransferase encoded by phage and plasmid” (mBio, 2025)
# Target: T1, AcrIF11Pae2 (Escherichia coli, UniProt A0AAB0B261)
# T1 construct: pET28b in E. coli BL21(DE3); 13C/15N-labelled
# Assay: NMR chemical shift perturbation on NAD titration
# Format: binding
# Settings: NMR structure 8DWQ is without NAD; structure sample 50 mM KPi pH 7.4, 298 K; titration conditions not stated
# T1 sequence (A0AAB0B261 entry or part of it): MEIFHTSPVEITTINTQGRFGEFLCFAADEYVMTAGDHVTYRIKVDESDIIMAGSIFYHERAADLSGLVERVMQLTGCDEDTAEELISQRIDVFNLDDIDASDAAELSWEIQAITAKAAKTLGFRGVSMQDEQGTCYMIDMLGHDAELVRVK
smiles,measurement,value
NC(=O)c1ccc[n+]([C@@H]2O[C@H](COP(=O)(O)OP(=O)(O)OC[C@H]3O[C@@H](n4cnc5c(N)ncnc54)[C@H](O)[C@@H]3O)[C@@H](O)[C@H]2O)c1 [NAD],NMR chemical shift perturbation on NAD titration,"upon titration of cofactor NAD, the largest chemical shift perturbations occurred in the beta sheet region"
